Data on four compounds can be found in patent EP1202959B1, “AMINOBENZOPHENONES AS INHIBITORS OF IL-1-BETA AND TNF-ALPHA” (LEO PHARMA A/S, priority 1999, dated 2001).

Common to all, as to type: cell-based
The subject of assay [1] is Human polymorphonuclear (PMN) granulocytes. The assay can be described thus: Inhibition of PMN superoxide secretion (superoxide dismutase inhibitable reduction of ferricytochrome C). The conditions noted are these: human PMN granulocytes primed with TNF-α (3 ng/ml), stimulated with fMLP (10^-7 M); read-out: The median inhibition concentration (IC50, nM) of PMN-superoxide. The procedure: The compounds of the present invention also show similar activities in the ability to inhibit PMN (polymorphonuclear) superoxide secretion which is also indicative of potentially useful anti-inflammatory drugs. The compounds were tested using the following procedure: Human polymorphonuclear (PMN) granulocytes were isolated from human blood by dextran sedimentation, Lymphoprep® fractionation and hypotonic lysis of contaminating erythrocytes. Superoxide anion generation was measured as the superoxide dismutase inhibitable reduction of ferricytochrome C (Madhu, S.B. et al, Inflammation, 16, 241, (1992)). The cells were suspended in Hanks' balanced salt solution, and incubated for 10 minutes at 37°C with test compounds. The cells were primed by the addition of TNF-α (3 ng/ml final concentration) for 10 minutes, and then ferricytochrome C, (final concentration 750µg/ml), bovine serum albumin (BSA, final concentration 1 mg/ml) and formyl-methionyl-leucyl-phenylalanine (fMLP, final concentration 10^-7 M) were added for 3 minutes. The cells were chilled on ice, and were spun down. The optical densities in the cell-free supernatant was measured in a spectrophotometer. The median inhibitory concentration (IC50) of the compounds was calculated.

A further assay deals with TNF-α. Briefly: Inhibition of TNF-α secretion in LPS stimulated peripheral blood mononuclear cells (ELISA). The conditions noted are these: PBMC; LPS stimulated human peripheral blood mononuclear cells; compounds added 30 minutes before LPS; incubated 18 hours; read-out: The median inhibition concentration (IC50, nM) of TNF-α. The procedure:
(§1) To study the effect of the compound of the present invention in vitro the inhibition of the IL-1β and TNF-α secretion was measured using the following procedure:
(§2) Cytokine production was measured in the media from lipopolysaccharide (LPS) stimulated peripheral blood mononuclear cells. The mononuclear cells were isolated from human peripheral blood by Lymphoprep® (Nycomed, Norway) fractionation and suspended in RPMI 1640 (growth medium) with foetal calv serum (FCS, 2%), at a concentration of 5 x 10^5 cells/ml. The cells were incubated in 24-well tissue culture plates in 1 ml aliquots. Test compounds were dissolved in dimethylsulfoxide (DMSO, 10 mM) and were diluted with the medium. Compounds were added to the cells for 30 minutes, then LPS ([…] final concentration) was added. The plates were incubated for 18 hours, and the concentration of IL-1β and TNF-α in the medium was determined by enzyme-linked immunosorbent assays. The median inhibitory concentrations (IC50) of the compounds were calculated.
Background: An ELISA detects its analyte on a solid surface through an enzyme-linked reagent.

A further assay concerns IL-1β. Briefly: Inhibition of IL-1β secretion in LPS stimulated peripheral blood mononuclear cells (ELISA). The conditions noted are these: PBMC; LPS stimulated human peripheral blood mononuclear cells; compounds added 30 minutes before LPS; incubated 18 hours; read-out: The median inhibition concentration (IC50, nM) of IL-1β. The procedure: as §1, §2

Take `Cc1ccccc1C(=O)c1ccc(Nc2ccccc2NC(=O)Oc2ccccc2)cc1Cl` [Compound 105, Phenyl N-[2-[3-chloro-4-(2-methylbenzoyl)-phenylamino]phenyl]carbamate]: the IC50 in assay [1] amounted to 100 nM; with TNF-α, 10 nM; with IL-1β it was 50 nM.
Turning to `CC(=O)OCOC(=O)Nc1ccccc1Nc1ccc(C(=O)c2ccccc2C)c(Cl)c1` [Compound 109, 1-Acetoxymethyl N-[2-[3-chloro-4-(2-methylbenzoyl)-phenylamino]phenyl]carbamate], the IC50 stood at 40 nM in assay [1], 6.3 nM in the assay with TNF-α and 32 nM with IL-1β.
Taken in the same sequence, the figures for `Cc1ccccc1C(=O)c1ccc(Nc2ccccc2N)cc1Cl` [ref. a), 4-(2-Aminophenylamino)-2-chloro-2'-methylbenzophenone] were 5 nM, 7.1 nM and 13 nM.
For `CCOC(=O)Nc1ccccc1Nc1ccc(C(=O)c2ccccc2C)c(Cl)c1` [ref. b), Ethyl N-[2-[3-chloro-4-(2-methylbenzoyl)-phenylamino]phenyl]carbamate], in that order: 5 nM, 5 nM and 32 nM.
